Consider four compounds from ChEMBL document CHEMBL2203268, “Resveratrol as a kcat type inhibitor for tyrosinase: potentiated melanogenesis inhibitor” (Bioorg Med Chem, 2012).

In general, inhibition refers to the drop in the measured response relative to a control, in per cent. By IC50 is commonly meant the concentration at which inhibition is half-maximal.

Molecules are shown by their SMILES. Active and inactive are the calls of the source. The calls are words filed in the database; no cut-off is given here. Some results are limits rather than exact numbers.

Data set [1] relates to B16-F10. The experiment in a line: Antimelanogenic activity in mouse assessed as cellular melanin content B16F10 cells after 72 hrs by spectrophotometric analysis. Type of data set: functional, cell-based.
Data set [2] concerns B16-F10. Put plainly: Cytotoxicity against mouse B16F10 cells assessed as suppression of cell viability at 12.5 to 200 uM after 72 hrs. The conditions noted are these: b16-f10, 72 h. The data set is classed as cell-based.
The subject of data set [3] is B16-F10. The experiment in a line: Cytotoxicity against mouse B16F10 cells assessed as suppression of cell viability at 400 uM after 72 hrs. The data set is classed as cell-based. The conditions noted are these: b16-f10, 72 h.
Data set [4] can be described thus: Drug metabolism assessed as oxidation of the compound at 100 uM by HPLC analysis in the presence of tyrosinase. Type of data set: physicochemical. The conditions noted are these: TDE = time-dependent effect.
The test system of data set [5] is tyrosinase. The experiment in a line: Drug metabolism assessed as oxidation of the compound at 100 uM after 60 mins by HPLC analysis in the presence of tyrosinase. The data set is classed as physicochemical. Conditions: read-out: Drug metabolism.
Data set [6] has as its system B16-F10. The experiment in a line: Antimelanogenic activity in mouse assessed as cellular melanin content B16F10 cells at 200 uM after 72 hrs spectrophotometric analysis. The data set is classed as functional, cell-based.
The target of data set [7] is T1, Tyrosinase (Agaricus bisporus) (UniProt O42713).
T1 sequence (whole entry): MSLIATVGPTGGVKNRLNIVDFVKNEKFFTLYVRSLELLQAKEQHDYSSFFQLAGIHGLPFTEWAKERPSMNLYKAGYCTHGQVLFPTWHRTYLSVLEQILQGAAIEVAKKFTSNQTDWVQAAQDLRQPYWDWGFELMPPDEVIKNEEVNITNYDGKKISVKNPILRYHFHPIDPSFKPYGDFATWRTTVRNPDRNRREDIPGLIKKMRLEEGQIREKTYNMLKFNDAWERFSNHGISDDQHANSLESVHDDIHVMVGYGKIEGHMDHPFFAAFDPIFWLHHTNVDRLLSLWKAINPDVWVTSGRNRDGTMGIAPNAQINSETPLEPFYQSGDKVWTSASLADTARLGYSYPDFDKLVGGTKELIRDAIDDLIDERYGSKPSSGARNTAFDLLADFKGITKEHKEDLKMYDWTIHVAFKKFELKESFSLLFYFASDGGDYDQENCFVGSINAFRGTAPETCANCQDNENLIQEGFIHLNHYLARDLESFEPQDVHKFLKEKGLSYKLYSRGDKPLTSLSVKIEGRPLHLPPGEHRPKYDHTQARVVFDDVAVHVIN
Put plainly: Inhibition of mushroom tyrosinase-mediated oxygen consumption at 100 uM using L-tyrosine substrate incubated 30 mins prior to substrate addition measured after 60 mins.

Data set [8] has as its target T1, Tyrosinase (Agaricus bisporus). The experiment in a line: Activation of mushroom tyrosinase assessed as L-DOPA oxidation at 100 uM after 30 mins by UV-vis spectrophotometric analysis.
Data set [9] shares this target. The experiment in a line: Inhibition of mushroom tyrosinase assessed as L-tyrosine oxidation at 100 uM incubated 30 mins prior to substrate addition measured after 60 mins by UV-vis spectrophotometric analysis.
Data set [10] shares this target. Put plainly: Inhibition of mushroom tyrosinase-mediated L-tyrosine oxidation at 100 uM after 60 mins by HPLC analysis.
For data set [11] the target is unchanged. Put plainly: Inhibition of mushroom tyrosinase-mediated L-DOPA oxidation at 100 uM after 30 mins by UV-vis spectrophotometric analysis.
The target is the same in data set [12]. The experiment in a line: Inhibition of mushroom tyrosinase-mediated L-DOPA oxidation assessed as decrease in dopachrome formation at 100 uM preincubated for 30 mins by HPLC analysis.
For data set [13] the target is unchanged. Put plainly: Inhibition of mushroom tyrosinase-mediated dopachrome formation after 60 mins by UV-vis spectrophotometric analysis.
The target is the same in data set [14]. The experiment in a line: Inhibition of mushroom tyrosinase-mediated oxygen consumption at 100 uM using L-DOPA substrate incubated 30 mins prior to substrate addition measured after 60 mins.
The subject of data set [15] is B16-F10. The experiment in a line: Cytotoxicity against mouse B16F10 cells assessed as suppression of cell viability after 72 hrs. The data set is classed as cell-based.
Data set [16] has as its target T1, Tyrosinase (Agaricus bisporus). The experiment in a line: Inhibition of mushroom tyrosinase-mediated L-tyrosine oxidation assessed as decrease in dopachrome formation at 100 uM after 60 mins by UV-vis spectrophotometric analysis.
Data set [17] has the same target. Put plainly: Inhibition of mushroom tyrosinase-mediated oxygen consumption using L-DOPA substrate at 100 uM after 30 mins.
The target is the same in data set [18]. Put plainly: Inhibition of mushroom tyrosinase assessed as L-DOPA oxidation HPLC analysis.
A short description of data set [19]: Drug metabolism assessed as oxidation of the compound at 100 uM after 30 mins by HPLC analysis in the presence of tyrosinase. The data set is classed as physicochemical. Conditions: 0.5 h.
Data set [20] concerns the target T1, Tyrosinase (Agaricus bisporus). The experiment in a line: Activation of mushroom tyrosinase assessed as dopachrome formation after 60 mins by UV-vis spectrophotometric analysis.
Data set [21] shares this target. Put plainly: Activation of mushroom tyrosinase assessed as oxygen consumption using L-tyrosine substrate after 60 mins.
For data set [22] the target is unchanged. Put plainly: Inhibition of mushroom tyrosinase-mediated oxygen consumption using L-tyrosine substrate after 60 mins.
Data set [23] shares this target. Put plainly: Inhibition of mushroom tyrosinase-mediated L-DOPA oxidation assessed as decrease in dopachrome formation at 100 uM incubated 30 mins prior to substrate addition measured after 60 mins by UV-vis spectrophotometric analysis.
The subject of data set [24] is B16-F10. Put plainly: Cytotoxicity against mouse B16F10 cells assessed as suppression of cell viability at 200 uM after 72 hrs. The data set is classed as cell-based. Conditions: b16-f10, 72 h.
Data set [25] concerns the target T1, Tyrosinase (Agaricus bisporus). The experiment in a line: Inhibition of mushroom tyrosinase assessed as L-DOPA oxidation at 100 uM incubated 30 mins prior to substrate addition measured after 60 mins by UV-vis spectrophotometric analysis.
The target is the same in data set [26]. The experiment in a line: Inhibition of mushroom tyrosinase-mediated L-DOPA oxidation assessed as recovery of enzymatic activity at 100 uM preincubated for 30 mins by HPLC analysis in the presence of 200 uM of L-cysteine.
Data set [27] has the same target. The experiment in a line: Inhibition of mushroom tyrosinase-mediated L-tyrosine oxidation after 60 mins by HPLC analysis.
A short description of data set [28]: Drug metabolism assessed as oxidation of the compound at 100 uM after 10 mins by UV-vis spectrophotometric analysis in the presence of tyrosinase. Type of data set: physicochemical.

`Oc1cc(O)cc(/C=C\c2ccccc2)c1`: the outcome in data set [1] was inactive. For the same compound, the Activity result in [2] is recorded as “Non-toxic”.
Taken in the same sequence, the figures for `Oc1cc(O)cc(CCc2ccccc2)c1` [DIHYDROPINOSYLVIN] were “inactive” and “Non-toxic”.
Consider `Oc1cc(O)cc(/C=C/c2ccccc2)c1` [PINOSYLVIN], for which the Activity entry in data set [2] is listed as “Non-toxic”; in data set [3], “Toxic”.
`Oc1ccc(/C=C/c2cc(O)cc(O)c2)cc1` [RESVERATROL]: the figures for the Drug metabolism entry in data set [4], in [19] and in data set [28] were “tde”, “Active” and “Active”, respectively. In addition, in data set [5], the metabolised at 1 h, 100 µM turned out to be 90%. The Activity entry in [1] was “Dose-dependent effect”; in data set [2], “Non-toxic”; in data set [15] (mouse, b16-f10, 72 h) it was “Dose-dependent effect”; in data set [20], “Dose-dependent effect”; in [21], “Dose-dependent effect”; in data set [24], 10%. The outcome in data set [6] was Active. For the same compound, the inhibition entry in [7], in data set [9], in data set [10], in data set [14], in data set [16] and in [18] was “Active” throughout. Also, the inhibition entry in [23] is “Active”. The result in data set [8] was inactive. The inhibition result in data set [11], in [13], in data set [17] and in data set [22] was “inactive” each time. Besides, the inhibition is 10% in data set [12], 90% in data set [25], 20% in data set [26] and “Dose-dependent effect” in data set [27]. Also, the IC50 in data set [15] (Mus musculus, B16-F10, 72 h) is greater than 200 µM.
